pIC50: −log10 of the molar value.
Columns and labels:
[1] = system: H2030 and H2030BrM3 cells; assay: Autophagy and mitophagy markers in cell lysates, MDC staining; format: cell-based, human
Procedure: Mito-LON induces autophagic cell death in human lung cancer cell lines and lung-derived brain metastatic lines. To investigate potential mechanisms underlying Mito-LON's induction of cancer cell death that result from its inhibition of mitochondrial respiration and induction of ROS, we analyzed lysates of cells treated with Mito-LON [2.0 μM] for 0, 6, 24 and 48 h. Lysates were probed for proteins targeting energetics, apoptosis and autophagy, including selective mitophagy markers. Our data (FIG. 19) show Mito-LON treatment [2.0 μM] modulates key autophagy proteins, including specific mitophagy receptors, adaptor proteins and energy sensing molecules in H2030 lung cancer cells and the corresponding brain metastatic line (H2030BrM3). LC3, microtubule-associated protein light chain 3, is critical for cargo recruitment. The LC3 precursor is modified via an ubiquitination-like system generating soluble LC3-I, which is further modified to LC3-II, a membrane-bound phospholipid conjugate upon autophagy induction. LC3-II integrates into the autophagosome membrane and is considered a reliable early marker of autophagy induction. Mito-LON treatment (FIG. 19A) increased levels of LC3-II 1.9 to 4.4-fold across cell lines, with sustained modulation through 48 h. The LC3-interacting region (LIR) serves as a mechanistic basis for selective autophagy, including mitophagy which specifically targets degradation of damaged mitochondria via engagement of adaptor proteins (p62, NBR1, OPTN, BNIP3L). We evaluated the effects of Mito-LON on ubiquitin-binding mitophagy receptors (p62, NDP52, NBR1) which also indicate autophagic flux versus potential impairment of autophagosome turnover. […] Changes were consistently bimodal in Mito-LON treated H2030 cells, potentially due to P62's dual role in mitophagy, both in clustering of mitochondria as well as downstream degradation. […] PINK1 was included as an indicator of PINK1-Parkin dependent mitophagy. Basal levels of PINK1 are normally low with increases due to mitochondrial depolarization, damage and ATP alterations, as noted in both cell lines. Beclin1 (BECN1), an autophagy regulator and potential tumor suppressor gene product in multiple cancers, including NSCLC.
Thus, autophagy induction in the lung derived brain metastatic line may be BECN1-independent. […] NRF2, a major regulator of cellular stress responses, was not detectable in either cell line. FIG. 19B further supports autophagy induction by Mito-LON. […] Specifically, Mito-LON alters phosphorylation events and activating partners in parallel. As an example, P-P70S6K^Thr389 phosphorylates mTOR^Ser2448; both reduced in Mito-LON treated cells. Similarly, ULK is activated by AMPK, and both phosphoproteins are decreased by Mito-LON, as is P-PTEN.

cytosolic Prx1 = assay: Redox status of cytosolic peroxiredoxin; format: cell-based, human; conditions: lung cancer cells
Description: Inhibition of mitochondrial respiration results in increased O2^⋅− and other oxidants.

[2] = system: VC-induced lung tumors in A/J mice; assay: Vinyl carbamate (VC)-induced lung carcinogenesis, post-initiation protocol; format: in vivo, mouse
Description: Preventive efficacy of Mito-LON on vinyl carbamate (VC)-Induced lung carcinogenesis using a post-initiation protocol. We evaluated the preventive efficacy of Mito-LON on the development of VC-induced lung tumors in A/J mice. A post-initiation protocol was used in this study by which administration of Mito-LON was initiated one week after VC. Mito-LON was given via oral gavage at a dose of 15 μmol/kg 5 days/week for 20 weeks.

H2030BrM3 cells = assay: Cell proliferation, IncuCyte Live-Cell Imaging Analyzer (cell confluence); format: cell-based; conditions: Homo sapiens, H2030-BrM3, read-out: IC50, cell proliferation
Procedure: In contrast, Mito-LON (1.2-2.7 μM) targets mitochondrial complexes I and II (FIG. 9); its mitochondrial effects are supported by the compartment-selective oxidation of mitochondrial Prx3 (FIG. 13). The anti-proliferative effects of Mito-LON and LON were compared in H2030BrM3 cells.

[3] = system: phosphorylated ERK and AKT in H2030BrM3 cells; assay: Receptor tyrosine kinase assay and Western blots of ERK and AKT phosphorylation; format: cell-based, human
Description: Role of HK2 and additional possible signaling events that contribute to the effects of Mito-LON. […] This could contribute to their effects as many cancers have constitutive ERK activation which promotes survival and proliferation, and ERK1 can play an important role in regulating mitochondrial activity, apoptosis, proliferation and migration. […] AKT is another pro-survival factor that is constitutively activated (phosphorylated) in many cancers.

[4] = system: mitochondrial complexes I and II; assay: Inhibition of mitochondrial complexes I and II, stated jointly; format: cell-based, human; conditions: for fold potency compared with LON/LDN, complexes I and II: H2030BrM3 lung cancer cells
Description: LON and Mito-LON inhibit mitochondrial complex I activity. Mito-LON inhibited cellular respiration (oxygen consumption rate, OCR) at >100-fold lower concentration than LON in intact lung cancer cells (FIG. 9). Both basal respiration and the response to mitochondrial stressors (oligomycin, dinitrophenol) were diminished by Mito-LON (not shown). To investigate the mechanism of mitochondrial inhibition, we measured the activity of mitochondrial complexes in H2030BrM3 cells (NSCLC cell line). The cell membrane was permeabilized, and OCR was measured upon addition of substrates and inhibitors of mitochondrial complexes I-IV (FIG. 9A). These studies established the optimal use of permeabilized cells for complex activity assays.^54 Next, cells were pretreated with LON and Mito-LON for 24 h and experiments performed as in FIG. 9A. […] We hypothesize that inhibition of mitochondrial complexes I and II is the predominant mechanism for antiproliferative effects of Mito-LON on lung cancer cells.

[5] = system: H2030 and H2030BrM3 cells; assay: Apoptosis markers in treated cells; format: cell-based, human
Description: Mito-LON's effects on inducing apoptosis in human lung cancer cell lines and their lung-derived brain metastatic lines. Results from Mito-LON-treated H2030 and H2030BrM3 cells (FIG. 20) supports cell death induction is mainly via autophagy rather than caspase-dependent apoptosis.

Pancreatic cancer cells = assay: Anti-proliferative effects in pancreatic cancer cells (number of cells over time); format: cell-based, human
Procedure: Pancreatic cancer cells were treated with either LND or Mito-LND at varying concentrations and the number of cells was assayed over time.

## O=C(NCCCCCCCCCC[P+](c1ccccc1)(c1ccccc1)c1ccccc1)c1nn(Cc2ccc(Cl)cc2Cl)c2ccccc12 [Mito-LON, Mito10-lonidamine]
[1]; 2.0 μM
  NDP52: paralleled P62 changes
[1]; 2.0 μM, H2030 and H2030-BrM3 cells
  Beclin-1 levels: increased Beclin-1 levels in H2030 cells but not in H2030-BrM3 cells
[1]; 2.0 μM, H2030 cells
  autophagic vacuolization (bright field): markedly increased vacuolization
  monodansylcadaverine (MDC) staining: stained positive for MDC
[1]; 2.0 μM, both cell lines
  P62: modulated P62 in both cell lines
[1]; FIG. 19C
  autophagy-initiating energy-sensing proteins of the AKT/mTOR signaling pathway: deactivates
[1]; H2030BrM3 cells
  RAB7 levels: increased levels of RAB7
Cytosolic Prx1
  effect on cytosolic Prx1: without significant effect
[2]; 15 μmol/kg oral gavage 5 days/week for 20 weeks, A/J mice
  inhibition of VC-induced lung tumor development, total tumor load: 62%
[2]; 15 μmol/kg oral gavage, 20 weeks
  body weight changes: did not observe any body weight changes
H2030BrM3 cells
  pIC50: 6.15
[3]
  phosphorylated AKT levels: decreased phosphorylated AKT levels
[3]; confirmed by Western blots
  phosphorylated ERK levels: decreased phosphorylated ERK levels
[4]; FIG. 9
  concentration that targets mitochondrial complexes I and II: 1.2 to 2.7 µM
  fold potency compared with LON/LDN, complexes I and II: over 100 fold
[4]; FIG. 9, listed as Mito-LDN
  fold potency compared with LON/LDN, complexes I and II: greater than 100 fold
[4]; read-out: IC50, inhibition of complex I and II, pretreatment of H2030BrM3 cells
  pIC50: ~5.70
[5]
  caspase cleavage: did not induce caspase cleavage
  cleaved PARP and cytochrome c levels: increased levels of cleaved PARP and cytochrome c
Pancreatic cancer cells; Homo sapiens, Pancreatic cancer cell, read-out: IC50, inhibiting the proliferation of cancer cells
  pIC50: 6.19
Pancreatic cancer cells; pancreatic cancer cells, FIG. 6
  fold more effective than LND in anti-proliferative effects: ~500 fold
